Here are results for one compound from US12653772B2, “Use of a rosebush extract as depigmenting active agent” (L'OREAL, priority 2020, dated 2026).

The test system of the experiment is reconstructed pigmented Episkin model. The experiment can be described thus: Depigmenting effect by topical application on the reconstructed pigmented Episkin model; melanin quantified by image analysis of Fontana-Masson stained sections. Type of experiment: cell-based. The settings on record: DMSO control 569.02. As for the experimental part:
The results of the evaluation are compared to those of the solvent (DMSO) control and of a reference whitening active agent (Lucinol).
The histological quality of the epidermis after treatment was evaluated on the HES-stained histological section in order to determine the effect of the treatment on the epidermis.
The melanocyte physiology was also evaluated in order to detect melanocyte cytotoxicity.
The melanin present in the PRE is stained on the histological slide (Fontana-Masson staining) and then quantified by image analysis.
Each epidermis slide is digitized using Nanozoomer®.
For each epidermis, about 10˜15 images are extracted (white light, magnification ×20).
The area occupied by melanin is quantified using the Histolab® software.
Two parameters, namely graphic comparison (box-plot) and p value significance (Mann-Whitney U test), were applied to the interpretation of the statistical results.
Up to 6 repetitions were calculated for each treatment group.
The statistical significance between the test groups and the corresponding solvent controls was determined using the non-parametric Mann-Whitney U test (n=6).
The statistical significance is defined if the p value is less than 0.05. […]
The area occupied by melanin is quantified using the Histolab® software and is represented by the mean pixel number per image. […]

As to `CCCCc1ccc(O)cc1O` [Lucinol], the “Mean pixel number/image (area occupied by melanin)” value is, setting by setting: (300 μM) 394.69; (500 μM) 467.76.
